Where no end group is shown, it is not given here.
Legend:
[1] = molecular target: MIP-R1 (I. scapularis myoinhibitory peptide receptor 1) (Ixodes scapularis, UniProt L7ZCA0); assay: cell-based
[2] = molecular target: SIFa-R (I. scapularis SIFamide receptor) (Ixodes scapularis, UniProt L7Z4E7); assay: Receptor functional assay; assay type: cell-based
SG acini = conditions: paracrine factor; ref Kaufman et al., 1999; Šimo et al., 2011a; cited from earlier work
synganglion = conditions: ref Kaufman, 1978; McSwain et al., 1992; cited from earlier work

## GGDWNALSGMW-NH2 [MIP1]
[1]
  EC50: 40 nM

## AYRKPPFNGSIF-NH2 [SIFamide]
[2]
  EC50: 5.8 nM

## ENHWNDLSGYW-NH2 [MIP3]
[1]
  EC50: 15 nM

## NCCc1ccc(O)c(O)c1 [Dopamine]
SG acini
  activation of SG acini: acts as a paracrine factor for the activation of SG acini for fluid secretion

## CC[C@@H]1C(=O)OC[C@@H]1Cc1cncn1C [pilocarpine]
synganglion
  activation of the synganglion: activates the synganglion

## ASDWNRLSGMW-NH2 [MIP2]
[1]
  EC50: 32 nM

Source: paper PMC3602366 (Insect biochemistry and molecular biology, 2013)
